Results on 27 compounds are retold here after patent US7777035B2, “Azaindazole compounds and methods of use” (Chemocentryx, Inc., priority 2005, dated 2010).

pIC50: −log10 of the molar value.

In this assay the target is T1, CCR1 (Homo sapiens, UniProt P32246).
T1 construct: host or cells: THP-1 cells or monocytes isolated from human buffy coats
T1 sequence (P32246 1-355): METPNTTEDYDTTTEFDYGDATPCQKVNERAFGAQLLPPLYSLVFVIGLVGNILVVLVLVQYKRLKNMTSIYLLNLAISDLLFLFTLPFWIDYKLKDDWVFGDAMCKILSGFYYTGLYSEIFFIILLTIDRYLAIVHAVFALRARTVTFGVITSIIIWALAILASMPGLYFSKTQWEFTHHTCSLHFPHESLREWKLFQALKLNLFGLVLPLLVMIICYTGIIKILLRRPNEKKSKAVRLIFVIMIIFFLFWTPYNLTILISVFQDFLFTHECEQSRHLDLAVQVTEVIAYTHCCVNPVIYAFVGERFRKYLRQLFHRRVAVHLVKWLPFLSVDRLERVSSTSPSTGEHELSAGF
Description: CCR1 chemotaxis assay or binding assay (activity given for either). The conditions noted are these: either the chemotaxis assay or binding assay; CCR1 expressing cells (THP-1 or human monocytes); read-out: Activity (IC50 class). The protocol: Cells were grown under 5% CO2/95% air, 100% humidity at 37° C. and subcultured twice weekly at 1:5 (cells were cultured at a density range of 2×10^5 to 2×10^6 cells/mL) and harvested at 1×10^6 cells/mL. THP-1 cells express CCR1 and can be used in CCR1 binding and functional assays.
Monocytes were isolated from human buffy coats using the Miltenyi bead isolation system (Miltenyi, Auburn, Calif.). Briefly, following a Ficoll gradient separation to isolate peripheral blood mononuclear cells, cells were washed with PBS and the red blood cells lysed using standard procedures. Remaining cells were labeled with anti-CD14 antibodies coupled to magnetic beads (Miltenyi Biotech, Auburn, Calif.). Labeled cells were passed through AutoMACS (Miltenyi, Auburn, Calif.) and positive fraction collected. Monocytes express CCR1 and can be used in CCR1 binding and functional assays.
CCR1 expressing cells were centrifuged and resuspended in assay buffer (20 Mm HEPES pH 7.1, 140 Mm NaCl, 1 Mm CaCl2, 5 Mm MgCl2, and with 0.2% bovine serum albumin) to a concentration of 5×10^6 cells/mL for THP-1 cells and 5×10^5 for monocytes. Binding assays were set up as follows. […] Reactions were aspirated onto GF/B glass filters pre-soaked in 0.3% polyethyleneimine (PEI) solution, on a vacuum cell harvester (Packard Instruments; Meriden, Conn.). Scintillation fluid (40 μl; Microscint 20, Packard Instruments) was added to each well, the plates were sealed and radioactivity measured in a Topcount scintillation counter (Packard Instruments). Control wells containing either diluent only (for total counts) or excess MIP-1α or MIP-1β (1 μg/mL, for non-specific binding) were used to calculate the percent of total inhibition for compound. The computer program Prism from GraphPad, Inc. (San Diego, Calif.) was used to calculate IC50 values.
Chemotaxis assays were performed using 5 ┌ m pore polycarbonate, polyvinylpyrrolidone-coated filters in 96-well chemotaxis chambers (Neuroprobe; Gaithersburg, Md.) using chemotaxis buffer (Hank's balanced salt solution (HBSS) and 1% FBS). CCR1 chemokine ligands (i.e., MIP-1α, CCL15/Leukotactin; R&D Systems; Minneapolis, Minn.) are use to evaluate compound mediated inhibition of CCR1 Mediated migration. Other chemokines (i.e., SDF-1α; R&D Systems; Minneapolis, Minn.) are used as specificity controls. […] The chambers were incubated 1-2 hours at 37° C., and the number of cells in the lower chamber quantified either by direct cell counts in five high powered fields per well or by the CyQuant assay (Molecular Probes), a fluorescent dye method that measures nucleic acid content and microscopic observation.
THP-1 cells and monocytes lack other chemokine receptors that bind the same set of chemokine ligands as CCR1 (i.e., MIP-1α, MPIF-1, Leukotactin, etc.). Equal numbers of cells were added to each well in the plate. The cells were then incubated with radiolabeled MIP-1α. Unbound ligand was removed by washing the cells, and bound ligand was determined by quantifying radioactive counts. […] Percent inhibition was determined by the equation: […]
In the assay, the amount of compound was varied; while cell number and ligand concentration were held constant.
One of the primary functions of chemokines is their ability to mediate the migration of chemokine receptor-expressing cells, such as white blood cells. […] THP-1 Myelomonocytic leukemia cells, which resemble monocytes, as wells as freshly isolated monocytes, were used as targets for chemoattraction by CCR1 chemokine ligands (i.e., MIP-1α, CCL15/leukotactin). […] In this assay, the amount of compound was varied; while cell number and chemokine agonist concentrations were held constant. After the chemotaxis chambers were incubated 1-2 hours at 37° C., the responding cells in the lower chamber were quantified by labeling with the CyQuant assay (Molecular Probes), a fluorescent dye method that measures nucleic acid content, and by measuring with a Spectrafluor Plus (Tecan).
The pIC50 is −log10 of the IC50, conventionally taken in molar units. On to `COc1cc(N2CCN(C(=O)Cn3nc(N)c4ccc(C)nc43)CC2)ccc1Cl` [Compound 1.055], for which the pIC50 was greater than 6.00.

`COc1cc(N2CCN(C(=O)Cn3nc(-c4ncon4)c4cccnc43)[C@@H](C)C2)c(F)cc1Cl` [Compound 1.056]: the pIC50 is greater than 6.00.

Turning to `COc1cc(N2CCN(C(=O)Cn3nc(C(=N)NO)c4cccnc43)CC2)ccc1Cl` [Compound 1.057], the pIC50 was greater than 6.00.

Turning to `COc1cc(N2CCN(C(=O)Cn3nc(-c4ncon4)c4cccnc43)CC2)ccc1Cl` [Compound 1.058], the pIC50 is greater than 6.00.

`COc1cc(N2CCN(C(=O)Cn3nc(-c4noc(C)n4)c4cccnc43)CC2)ccc1Cl` [Compound 1.059]: the pIC50 was greater than 6.00.

On to `COc1cc(N2CCN(C(=O)Cn3ncc4ccc(NC(C)=O)nc43)CC2)ccc1Cl` [Compound 1.060], for which the pIC50 was greater than 6.00.

Take `COc1cc(N2CCN(C(=O)Cn3nc(S(C)(=O)=O)c4cccnc43)CC2)ccc1Cl` [Compound 1.061]: the pIC50 was greater than 6.00.

As for `COc1cc(N2CCN(C(=O)Cn3nc(CN)c4cccnc43)CC2)ccc1Cl` [Compound 1.062], the pIC50 was 5.60 to 6.00.

As for `COc1cc(N2CCN(C(=O)Cn3nc(I)c4cccnc43)CC2)ccc1Cl` [Compound 1.063], the pIC50 was greater than 6.00.

Consider `COc1cc(N2CCN(C(=O)Cn3nc(I)c4cccnc43)[C@@H](C)C2)c(F)cc1Cl` [Compound 1.064], for which the negative logarithm of the IC50 (pIC50) was greater than 6.00.

As to `CCOc1cc(N2CCN(C(=O)Cn3nc(-c4ncc[nH]4)c4cccnc43)CC2)c(F)cc1Cl` [Compound 1.065], the pIC50 was greater than 6.00.

On to `O=C(Cn1nc(-c2ncc[nH]2)c2cccnc21)N1CCN(c2cc(OCCF)c(Cl)cc2F)CC1` [Compound 1.066], for which the pIC50 was greater than 6.00.

In the case of `CCOc1cc(N2CCN(C(=O)Cn3nc(-c4ncc[nH]4)c4cccnc43)CC2)ccc1Cl` [Compound 1.067], the pIC50 is greater than 6.00.

For the compound `COc1cc(N2CCN(C(=O)Cn3nc(-c4ncc[nH]4)c4cccnc43)CC2)c(F)cc1Cl` [Compound 1.068], the pIC50 was greater than 6.00.

For `COc1cc(N2CCN(C(=O)Cn3nc(-c4ncc[nH]4)c4cccnc43)[C@@H](C)C2)ccc1Cl` [Compound 1.069], the pIC50 was greater than 6.00.

For the compound `COc1cc(N2CCN(C(=O)Cn3nc(-c4ncc[nH]4)c4cccnc43)[C@@H](C)C2)c(F)cc1Cl` [Compound 1.070], the negative logarithm of the IC50 (pIC50) is greater than 6.00.

For `COc1cc(N2CCN(C(=O)Cn3nc(-c4ncc[nH]4)c4cccnc43)C[C@H]2C)ccc1Cl` [Compound 1.071], the pIC50 is greater than 6.00.

As to `COc1cc(N2CCN(C(=O)Cn3nc(-c4ncc[nH]4)c4cccnc43)C[C@@H]2C)ccc1Cl` [Compound 1.072], the pIC50 was greater than 6.00.

`COc1cc(N2CCN(C(=O)Cn3nc(-c4ncc[nH]4)c4cccnc43)[C@H](C)C2)ccc1Cl` [Compound 1.073]: the pIC50 is greater than 6.00.

Consider `CCOc1cc(N2CCN(C(=O)Cn3nc(-c4ncc[nH]4)c4cccnc43)[C@@H](C)C2)ccc1Cl` [Compound 1.074], for which the pIC50 was greater than 6.00.

With `O=C(Cn1nc(-c2ncc[nH]2)c2cccnc21)N1CCN(c2ccc(Cl)c(OCCF)c2)CC1` [Compound 1.075], the negative logarithm of the IC50 (pIC50) is greater than 6.00.

In the case of `C[C@H]1CN(c2ccc(Cl)c(OCCF)c2)CCN1C(=O)Cn1nc(-c2ncc[nH]2)c2cccnc21` [Compound 1.076], the pIC50 is greater than 6.00.

Turning to `Cc1cc(N2CCN(C(=O)Cn3nc(-c4ncc[nH]4)c4cccnc43)CC2)ccc1Cl` [Compound 1.077], the pIC50 is greater than 6.00.

For the compound `O=C(Cn1nc(-c2ncc[nH]2)c2cccnc21)N1CCN(c2ccc(Cl)c(C(F)(F)F)c2)CC1` [Compound 1.078], the negative logarithm of the IC50 (pIC50) is 4.90 to 5.60.

Take `O=C(Cn1nc(-c2ncc[nH]2)c2cccnc21)N1CCN(c2ccc(Cl)c(OC(F)(F)F)c2)CC1` [Compound 1.079]: the pIC50 is greater than 6.00.

Regarding `COc1cc(N2CCN(C(=O)Cn3nc(-c4ncc[nH]4)c4cccnc43)CC2)ccc1Cl` [Compound 1.080], the pIC50 was greater than 6.00.

With `COc1cc(N2CCN(C(=O)Cn3nc(-c4nccn4C)c4cccnc43)CC2)ccc1Cl` [Compound 1.081], the pIC50 was greater than 6.00.
